# PubChem BioAssay AID1259408 (Genetic Toxicology Data Bank (GENE-TOX), 2018)
# Calls of active or inactive are those of the source. No rule for the calls is given here.
# Test system: GENE-TOX genotoxicity assays, various organisms and cells
# Test: GENE-TOX mutagenicity studies
# Details: for call: Assay Type: In vivo carcinogenicity studies
# [1] = Species/Cell Type: Salmonella typhimurium (one or more of the five standard strains: TA98, TA100, TA1535, TA1537, and TA1538), Assay Type: Histidine reverse gene mutation, Ames assay, Assay Code: SAL+, Evaluation Type: Evaluation A (Pre-1980)
# [2] = Species/Cell Type: Bacillus subtilis (H17 vs M45), Assay Type: Rec-assay, spot test, DNA effects (bacterial DNA repair), Assay Code: REWT, Evaluation Type: Evaluation A (Pre-1980)
# [3] = Species/Cell Type: Escherichia coli polA (W3119 vs P3478), Assay Type: Rec-assay, DNA effects (bacterial DNA repair), Assay Code: RE1T, Evaluation Type: Evaluation A (Pre-1980)
# [4] = Species/Cell Type: Nonhuman, Assay Type: Sister-chromatid exchange (SCE) in vitro, Assay Code: SC2+D*, Activation: With metabolic activation, Dose Response: With dose response, Evaluation Type: Evaluation B (Post-1980)
# [5] = Species/Cell Type: Salmonella typhimurium, Assay Type: Forward and reverse gene mutation, body fluid assay, Assay Code: BFU+, Evaluation Type: Evaluation A (Pre-1980)
# [6] = Species/Cell Type: Drosophila melanogaster, Assay Type: Sex-linked recessive lethal gene mutation, Assay Code: SRL+, Evaluation Type: Evaluation A (Pre-1980)
# [7] = Species/Cell Type: Salmonella typhimurium (one or more of the five standard strains: TA98, TA100, TA1535, TA1537, and TA1538), Assay Type: Histidine reverse gene mutation, Ames assay, Assay Code: SAL+*, Activation: With metabolic activation, Evaluation Type: Evaluation A (Pre-1980)
# [8] = Species/Cell Type: Nonhuman, Assay Type: Sister-chromatid exchange (SCE) in vivo, Assay Code: SC3T, Evaluation Type: Evaluation B (Post-1980)
# [9] = Species/Cell Type: Hordeum vulgare (barley), Assay Type: Chromosome aberrations, Assay Code: HOC+, Evaluation Type: Evaluation A (Pre-1980)
# [10] = Species/Cell Type: Nonhuman, Assay Code: CCG+, Evaluation Type: Evaluation A (Pre-1980)
# [11] = Species/Cell Type: Mammalian polychromatic erythrocytes, Assay Type: Micronucleus test, chromosome aberrations, Assay Code: MNTT, Evaluation Type: Evaluation B (Post-1980)
# [12] = Species/Cell Type: Human, Assay Type: Sister-chromatid exchange (SCE) in vitro, Assay Code: SC1+D, Dose Response: With dose response, Evaluation Type: Evaluation B (Post-1980)
# [13] = Species/Cell Type: Nonhuman, Assay Type: Sister-chromatid exchange (SCE) in vitro, Assay Code: SC2+, Evaluation Type: Evaluation B (Post-1980)
# [14] = Species/Cell Type: Salmonella typhimurium (one or more of the five standard strains: TA98, TA100, TA1535, TA1537, and TA1538), Assay Type: Histidine reverse gene mutation, Ames assay, Assay Code: SAL-, Evaluation Type: Evaluation A (Pre-1980)
structure (smiles),measurement,setting,value
[N-]=[N+]=CC(=O)NCC(=O)NN,mutagenic call,[1],active; positive
C[C@]12CC[C@H]3[C@@H](CCC4=CC(=O)CC[C@@]43C)[C@@H]1CC[C@@H]2OC(=O)CCC1CCCC1,mutagenic call,"Species/Cell Type: Human, Sex: Male, Assay Type: Sperm morphology, Assay Code: SPH+, Evaluation Type: Evaluation A (Pre-1980)",active; positive
COP(=O)(OC)C(O)C(Cl)(Cl)Cl (stereo not drawn),mutagenic call,[2],no conclusion
same,mutagenic call,"Species/Cell Type: Drosophila melanogaster, Assay Type: Sex-linked recessive lethal gene mutation, Assay Code: SRL-, Evaluation Type: Evaluation A (Pre-1980)",inactive; negative
same,mutagenic call,"Species/Cell Type: Escherichia coli WP2 UVRA, Assay Type: Tryptophan reverse gene mutation, Assay Code: WPU+D, Dose Response: With dose response, Evaluation Type: Evaluation A (Pre-1980)",active; positive
same,mutagenic call,[3],no conclusion
same,mutagenic call,"Species/Cell Type: Human diploid fibroblasts, Assay Type: Unscheduled DNA synthesis (UDS) in vitro, DNA effects, Assay Code: UDH+/-*, Activation: With metabolic activation, Evaluation Type: Evaluation A (Pre-1980)","inactive; positive without activation, negative with activation"
same,mutagenic call,"Species/Cell Type: Mammalian polychromatic erythrocytes, Assay Type: Micronucleus test, chromosome aberrations, Assay Code: MNTT, Evaluation Type: Evaluation A (Pre-1980)",no conclusion
same,mutagenic call,[4],active; positive
same,mutagenic call,"Species/Cell Type: Saccharomyces cerevisiae, Assay Type: Mitotic recombination or gene conversion, Assay Code: YEH+, Evaluation Type: Evaluation A (Pre-1980)",active; positive
same,mutagenic call,[1],active; positive
same,mutagenic call,[5],active; positive
CC1CN1P(=O)(N(C)C)N(C)C (stereo not drawn),mutagenic call,[6],active; positive
COc1cc(N=Nc2ccccc2)ccc1N,mutagenic call,"Species/Cell Type: Escherichia coli polA (W3110 vs P3478), Assay Type: Rec-assay, DNA effects (bacterial DNA repair), Assay Code: RE2+, Evaluation Type: Evaluation A (Pre-1980)",active; positive
same,mutagenic call,[3],no conclusion
same,call,"Species/Cell Type: Nonhuman, Assay Code: CCG+L, Evaluation Type: Evaluation A (Pre-1980)",active; positive
same,mutagenic call,"Species/Cell Type: Saccharomyces cerevisiae, Assay Type: Mitotic recombination or gene conversion, Assay Code: YEH+/-*, Activation: With metabolic activation, Evaluation Type: Evaluation A (Pre-1980)","inactive; positive without activation, negative with activation"
same,mutagenic call,[7],active; positive
same,mutagenic call,"Species/Cell Type: Salmonella typhimurium, Assay Type: Forward and reverse gene mutation, host-mediated assay, Assay Code: HMA+, Evaluation Type: Evaluation A (Pre-1980)",active; positive
same,mutagenic call,"Species/Cell Type: Syrian hamster embryo (SHE) cells, Assay Type: Cell transformation, clonal assay, Assay Code: CTC+, Evaluation Type: Evaluation A (Pre-1980)",active; positive
O=[N+]([O-])c1ccc(-c2nc(NCCO)c3ccccc3n2)s1,mutagenic call,[1],active; positive
Cc1ccc(S(=O)(=O)NC(=O)N[C@H]2[C@H]3CC[C@@](C)([C@H]2O)C3(C)C)cc1,mutagenic call,[8],no conclusion
CC1C(c2ccccc2)OCCN1N=O (stereo not drawn),mutagenic call,"Species/Cell Type: Salmonella typhimurium, Assay Type: Forward and reverse gene mutation, host-mediated assay, Assay Code: HMA-, Evaluation Type: Evaluation A (Pre-1980)",inactive; negative
Nc1c(Cl)cc([N+](=O)[O-])cc1Cl,mutagenic call,"Species/Cell Type: Aspergillus nidulans, Assay Type: Aneuploidy, chromosome aberrations, Assay Code: ASNT, Evaluation Type: Evaluation A (Pre-1980)",no conclusion
same,mutagenic call,[2],no conclusion
same,mutagenic call,[9],active; positive
same,mutagenic call,"Species/Cell Type: Vicia faba, Assay Type: Chromosome aberrations, Assay Code: VIC+, Evaluation Type: Evaluation A (Pre-1980)",active; positive
Cc1ccccc1N=Nc1c(O)ccc2ccccc12,mutagenic call,"Species/Cell Type: Bacillus subtilis (H17 vs M45T), Assay Type: Rec-assay, spot test, DNA effects (bacterial DNA repair), Assay Code: REXT, Evaluation Type: Evaluation A (Pre-1980)",no conclusion
same,call,[10],active; positive
CN=C(N)NC(=O)Nc1c(C)cccc1C,mutagenic call,[11],no conclusion
CC1=CC(=C(c2ccc(N)c(S(=O)(=O)O)c2)c2ccc(N)c(S(=O)(=O)O)c2)C=C(S(=O)(=O)O)C1=N,mutagenic call,[2],no conclusion
O=c1c(O)c(-c2ccc(O)cc2)oc2cc(O)cc(O)c12,mutagenic call,"Species/Cell Type: Mammalian polychromatic erythrocytes, Assay Type: Micronucleus test, chromosome aberrations, Assay Code: MNT+, Evaluation Type: Evaluation B (Post-1980)",active; positive
same,mutagenic call,[4],active; positive
Cc1cc2c(c3ccc4ccccc4c13)CCC2=O,mutagenic call,"Species/Cell Type: Human lymphocytes, Assay Type: Sister-chromatid exchange (SCE) in vitro, Assay Code: SCL+D*, Activation: With metabolic activation, Dose Response: With dose response, Evaluation Type: Evaluation B (Post-1980)",active; positive
same,mutagenic call,"Species/Cell Type: Human, Assay Type: Sister-chromatid exchange (SCE) in vitro, Assay Code: SC1+D*, Activation: With metabolic activation, Dose Response: With dose response, Evaluation Type: Evaluation B (Post-1980)",active; positive
same,mutagenic call,"Species/Cell Type: Nonhuman, Assay Type: Sister-chromatid exchange (SCE) in vivo, Assay Code: SC3+, Evaluation Type: Evaluation B (Post-1980)",active; positive
same,mutagenic call,[7],active; positive
CCC1(c2ccc(O)cc2)OC1(CC)c1ccc(O)cc1 (stereo not drawn),mutagenic call,[12],active; positive
C/C=C(\C(=C/C)c1ccc(O)cc1)c1ccc(O)cc1,mutagenic call,[12],active; positive
Oc1ccccc1O,mutagenic call,"Species/Cell Type: Allium cepa, Assay Type: Chromosome aberrations, Assay Code: ALC+, Evaluation Type: Evaluation A (Pre-1980)",active; positive
same,mutagenic call,"Species/Cell Type: Human lymphocytes, Assay Type: Sister-chromatid exchange (SCE) in vitro, Assay Code: SCL+D, Dose Response: With dose response, Evaluation Type: Evaluation B (Post-1980)",active; positive
same,mutagenic call,[12],active; positive
same,mutagenic call,[11],no conclusion
Cc1cc(-c2cc(C)c(N)c(C)c2)cc(C)c1N,mutagenic call,"Species/Cell Type: Human diploid fibroblasts, Assay Type: Unscheduled DNA synthesis (UDS) in vitro, DNA effects, Assay Code: UDH-*, Activation: With metabolic activation, Evaluation Type: Evaluation A (Pre-1980)",inactive; negative
same,mutagenic call,"Species/Cell Type: Human, Assay Type: Sister-chromatid exchange (SCE) in vitro, Assay Code: SC1-, Evaluation Type: Evaluation B (Post-1980)",inactive; negative
same,mutagenic call,"Species/Cell Type: Mammalian polychromatic erythrocytes, Assay Type: Micronucleus test, chromosome aberrations, Assay Code: MNT+, Evaluation Type: Evaluation A (Pre-1980)",active; positive
same,mutagenic call,"Species/Cell Type: Mouse, Sex: Male, Assay Type: Sperm morphology, Assay Code: SPI-, Evaluation Type: Evaluation A (Pre-1980)",inactive; negative
same,mutagenic call,[13],active; positive
same,mutagenic call,[8],no conclusion
same,mutagenic call,[14],inactive; negative
same,mutagenic call,"Species/Cell Type: Tradescantia species, Assay Type: Gene mutation, Assay Code: TRM+D, Dose Response: With dose response, Evaluation Type: Evaluation A (Pre-1980)",active; positive
NC[C@@H](O)CCl,mutagenic call,"Species/Cell Type: Rodents, Sex: Male, Assay Type: Dominant lethal test, Assay Code: DLT-, Evaluation Type: Evaluation A (Pre-1980)",inactive; negative
OCCCCO,mutagenic call,"Species/Cell Type: Drosophila melanogaster, Assay Type: Sex-linked recessive lethal gene mutation, Assay Code: SRLT, Evaluation Type: Evaluation A (Pre-1980)",no conclusion
Cc1cccc2ncccc12,mutagenic call,[7],active; positive
ClCCCl,mutagenic call,"Species/Cell Type: Chinese hamster ovary (CHO) cells, Assay Type: Forward gene mutation at the HPRT locus, Assay Code: CHO+, Evaluation Type: Evaluation B (Post-1980)",active; positive
same,mutagenic call,"Species/Cell Type: Drosophila melanogaster, Assay Type: Aneuploidy, sex chromosome gain, chromosome aberrations, Assay Code: DAG+F, Evaluation Type: Evaluation A (Pre-1980)",active; positive
same,mutagenic call,"Species/Cell Type: Drosophila melanogaster, Assay Type: Aneuploidy, whole sex chromosome loss, chromosome aberrations, Assay Code: DAC+F, Evaluation Type: Evaluation A (Pre-1980)",active; positive
same,mutagenic call,[6],active; positive
same,mutagenic call,"Species/Cell Type: Escherichia coli polA (W3119 vs P3478), Assay Type: Rec-assay, DNA effects (bacterial DNA repair), Assay Code: RE1+, Evaluation Type: Evaluation A (Pre-1980)",active; positive
same,call,[10],active; positive
same,mutagenic call,[7],active; positive
same,mutagenic call,[5],active; positive
same,mutagenic call,"Species/Cell Type: Syrian hamster embryo (SA7/SHE) cells, Assay Type: Cell transformation, viral enhanced, Assay Code: CT7+, Evaluation Type: Evaluation A (Pre-1980)",active; positive
CN(N=O)C(=O)c1ccccc1,mutagenic call,[1],active; positive
C=COCC,mutagenic call,[13],active; positive
O=C(O)c1cc(I)cc(I)c1I,mutagenic call,[9],active; positive
CC1CC2OC(=O)C(C)C2CC2(C)C(O)OC(O)CC12 (stereo not drawn),mutagenic call,[1],active; positive
Cc1c(N)c(=O)n(-c2ccccc2)n1C,mutagenic call,[14],inactive; negative
